Key:
[1] = system: adult patients with nocturia; assay: Number of nocturnal voids, change from baseline to Day 28 (Study CS29 Part I); assay type: in vivo, human; settings: primary endpoint nocturnal voids
Protocol: The term “nocturnal void” as used herein refers to a void occurring from 5 minutes after bedtime until rising in the morning with the intention of getting up.
(§1) All treatments were administered orally once per night approximately 1 hour prior to bedtime; subjects were instructed to limit their fluid intake prior to drug self-administration. […] Randomization was to be stratified by age (<65, ≥65 years) and by the absence/presence of nocturnal polyuria, defined as a ratio of nighttime urine volume/24-hour urine volume 33%. To achieve the desired number of subjects within each stratum, enrollment of subjects in a particular stratum (age and/or presence/absence of nocturnal polyuria) could be halted. If this was necessary, all investigative sites were to be informed in writing at least 1 week in advance to stop screening in a population of subjects.
A total of 750 subjects were planned to be enrolled, with approximately 150 subjects per treatment group. Part I of the study was conducted in 7 visits. Screening (Visit 1) occurred within 21 days of dosing (Day 1, Visit 2); subjects returned for follow-up visits on Days 4, 8, 15, 22, and 28 (end of Part I). Duration of treatment in Part I was 28 days.
Subjects who met the following inclusion criteria were eligible for the study: provided written informed consent prior to the performance of any study-related activity, defined as any procedure that would not have been performed during the normal management of the subject; and was a male or female subject, 18 years of age and older, with an average of ≥2 nocturnal voids per night determined via a 3-day frequency-volume chart during the screening period
All treatments were administered orally once per night approximately 1 hour prior to bedtime. Subjects were instructed to place the tablet under their tongue, without water. Subjects were provided with sufficient study drug for the duration of Part I.
The primary endpoints for efficacy assessment were: (1) change in mean number of nocturnal voids from baseline evaluation to final visit (Day 28); and (2) proportion of subjects with >33% reduction in the mean number of nocturnal voids from baseline to final visit (Day 28). A further description and corresponding data directed to the second primary endpoint (i.e., portion of subjects with >33% reduction in the mean number of nocturnal voids) are not provided herein.
Of the 799 randomized subjects in Part I, 757 subjects who received at least 1 dose of study drug and had follow-up data were included in the intent to treat (ITT) analysis dataset. […] All 799 randomized subjects received at least 1 dose of study drug (desmopressin or placebo) and had at least 1 safety assessment and, therefore, were included in the safety analysis dataset.
(§2) Missing values concerning number of nocturnal voids at Day 8, Day 15, Day 22, and Day 28 in Part I were imputed using last observation carried forward (LOCF). Missing values concerning sleep disturbance and urine volume (for average 24-hour urine volume and average nocturnal urine volume) were not imputed.

[2] = system: adult patients with nocturia; assay: Change in urine volume (nocturnal, total) from baseline to Day 28 (Part I); assay type: in vivo, human; settings: for median decrease of nocturnal urine volume compared to baseline before treatment: Day 28; for Change from baseline to final visit (Day 28) of nocturnal urine volume, mean / Change from baseline to final visit (Day 28) of nocturnal urine volume, median: ITT, Part I
Protocol: As used herein, the term “nocturnal urine” refers to the total urine volume from 5 minutes after bedtime until rising in the morning, including the first void within 30 minutes of rising.
as §1
Changes in urine volume from baseline to the end of Day 28 were also assessed and included herein.
as §2

[3] = 10 ug, females over 50 years of age
[4] = 25 ug, females over 50 years of age
[5] = 50 ug, females over 50 years of age
[6] = 100 ug, females over 50 years of age
[7] = all males with monitoring, 10 ug dose
[8] = all males with monitoring, 25 ug dose
[9] = all males with monitoring, 50 ug dose
[10] = all males with monitoring, 100 ug dose
[11] = females over 65 years of age, 10 ug dose
[12] = females over 65 years of age, 25 ug dose
[13] = females over 65 years of age, 50 ug dose
[14] = females over 65 years of age, 100 ug dose

NC(=O)CC[C@@H]1NC(=O)[C@H](Cc2ccccc2)NC(=O)[C@H](Cc2ccc(O)cc2)NC(=O)CCSSC[C@@H](C(=O)N2CCC[C@H]2C(=O)N[C@H](CCCN=C(N)N)C(=O)NCC(N)=O)NC(=O)[C@H](CC(N)=O)NC1=O [desmopressin]
minimum effective dose (MED) ([1]; females): 25 µg | minimum effective dose (MED) ([1]; males): 100 µg | median decrease of nocturnal urine volume compared to baseline before treatment ([2]; 10 μg, all females): 179 mL | Change from baseline to final visit (Day 28) of nocturnal urine volume, mean ([2]; 10 ug, all females): -207 mL | Change from baseline to final visit (Day 28) of nocturnal urine volume, median ([2]; 10 ug, all females): -179 mL | median decrease of nocturnal urine volume compared to baseline before treatment ([2]; 10 μg, all groups): 150 mL | Change from baseline to final visit (Day 28) of nocturnal urine volume, mean ([2]; 10 ug, all groups): -164 mL | Change from baseline to final visit (Day 28) of nocturnal urine volume, median ([2]; 10 ug, all groups): -150 mL | median decrease of nocturnal urine volume compared to baseline before treatment ([2]; 10 μg, females over 50 years of age): 150 mL | Change from baseline to final visit (Day 28) of nocturnal urine volume, mean [2, 3]: -197 mL | Change from baseline to final visit (Day 28) of nocturnal urine volume, median [2, 3]: -150 mL | median decrease of nocturnal urine volume compared to baseline before treatment ([2]; 25 μg, all females): 298 mL | Change from baseline to final visit (Day 28) of nocturnal urine volume, mean ([2]; 25 ug, all females): -307 mL | Change from baseline to final visit (Day 28) of nocturnal urine volume, median ([2]; 25 ug, all females): -298 mL | Change from baseline to final visit (Day 28) of nocturnal urine volume, mean ([2]; 25 ug, all groups): -224 mL | Change from baseline to final visit (Day 28) of nocturnal urine volume, median ([2]; 25 ug, all groups): -233 mL | median decrease of nocturnal urine volume compared to baseline before treatment ([2]; 25 μg, females over 50 years of age): 383 mL | Change from baseline to final visit (Day 28) of nocturnal urine volume, mean [2, 4]: -356 mL | Change from baseline to final visit (Day 28) of nocturnal urine volume, median [2, 4]: -383 mL | median decrease of nocturnal urine volume compared to baseline before treatment ([2]; 25 μg, females over 65 years of age): 383 mL | Change from baseline to final visit (Day 28) of nocturnal urine volume, mean ([2]; 50 ug, all females): -257 mL | Change from baseline to final visit (Day 28) of nocturnal urine volume, median ([2]; 50 ug, all females): -204 mL | Change from baseline to final visit (Day 28) of nocturnal urine volume, mean ([2]; 50 ug, all groups): -272 mL | Change from baseline to final visit (Day 28) of nocturnal urine volume, median ([2]; 50 ug, all groups): -233 mL | Change from baseline to final visit (Day 28) of nocturnal urine volume, mean [2, 5]: -249 mL | Change from baseline to final visit (Day 28) of nocturnal urine volume, median [2, 5]: -196 mL | Change from baseline to final visit (Day 28) of nocturnal urine volume, mean ([2]; 100 ug, all females): -321 mL | Change from baseline to final visit (Day 28) of nocturnal urine volume, median ([2]; 100 ug, all females): -283 mL | Change from baseline to final visit (Day 28) of nocturnal urine volume, mean ([2]; 100 ug, all groups): -312 mL | Change from baseline to final visit (Day 28) of nocturnal urine volume, median ([2]; 100 ug, all groups): -283 mL | Change from baseline to final visit (Day 28) of nocturnal urine volume, mean [2, 6]: -317 mL | Change from baseline to final visit (Day 28) of nocturnal urine volume, median [2, 6]: -275 mL | median decrease of nocturnal urine volume compared to baseline before treatment ([2]; 100 μg, males with monitoring): 264 mL | Change from baseline to final visit (Day 28) of nocturnal urine volume, mean [2, 7]: -122 mL | Change from baseline to final visit (Day 28) of nocturnal urine volume, median [2, 7]: -83 mL | Change from baseline to final visit (Day 28) of nocturnal urine volume, mean [2, 8]: -146 mL | Change from baseline to final visit (Day 28) of nocturnal urine volume, median [2, 8]: -167 mL | Change from baseline to final visit (Day 28) of nocturnal urine volume, mean [2, 9]: -286 mL | Change from baseline to final visit (Day 28) of nocturnal urine volume, median [2, 9]: -235 mL | Change from baseline to final visit (Day 28) of nocturnal urine volume, mean [2, 10]: -296 mL | Change from baseline to final visit (Day 28) of nocturnal urine volume, median [2, 10]: -264 mL | Change from baseline to final visit (Day 28) of nocturnal urine volume, mean ([2]; all males, 10 ug dose): -125 mL | Change from baseline to final visit (Day 28) of nocturnal urine volume, median ([2]; all males, 10 ug dose): -117 mL | Change from baseline to final visit (Day 28) of nocturnal urine volume, mean ([2]; all males, 25 ug dose): -162 mL | Change from baseline to final visit (Day 28) of nocturnal urine volume, median ([2]; all males, 25 ug dose): -200 mL | Change from baseline to final visit (Day 28) of nocturnal urine volume, mean ([2]; all males, 50 ug dose): -286 mL | Change from baseline to final visit (Day 28) of nocturnal urine volume, median ([2]; all males, 50 ug dose): -246 mL | Change from baseline to final visit (Day 28) of nocturnal urine volume, mean ([2]; all males, 100 ug dose): -306 mL | Change from baseline to final visit (Day 28) of nocturnal urine volume, median ([2]; all males, 100 ug dose): -270 mL | Change from baseline to final visit (Day 28) of nocturnal urine volume, mean [2, 11]: -91 mL | Change from baseline to final visit (Day 28) of nocturnal urine volume, median [2, 11]: -54 mL | Change from baseline to final visit (Day 28) of nocturnal urine volume, mean [2, 12]: -372 mL | Change from baseline to final visit (Day 28) of nocturnal urine volume, median [2, 12]: -383 mL | Change from baseline to final visit (Day 28) of nocturnal urine volume, mean [2, 13]: -208 mL | Change from baseline to final visit (Day 28) of nocturnal urine volume, median [2, 13]: -203 mL | Change from baseline to final visit (Day 28) of nocturnal urine volume, mean [2, 14]: -323 mL | Change from baseline to final visit (Day 28) of nocturnal urine volume, median [2, 14]: -285 mL
